From patent US9427474B2, “Conjugates of a polymer, a bisphosphonate and an anti-angiogenesis agent and uses thereof in the treatment and monitoring of bone related diseases” (Ramot at Tel-Aviv University Ltd., priority 2008, dated 2016)
HPMA copolymer = not defined here

Columns and labels:
[1] = system: human prostate cell line PC3; test: PC3 cell proliferation assay (XTT); assay type: cell-based
Experimental: Human Umbilical vain endothelial cells (HUVEC) were plated onto 24-well plate (1×10^4 cells/well) in growth factors reduced media, (EBM-2, Cambrex, USA) supplemented with 5% Fetal Bovine Serum (FBS). Following 24 hours of incubation (37° C.; 5% CO2) medium was replaced with EGM-2 (Cambrex, USA). PC3 cells were plated onto 96 well plate (2×10^3 cells/well) in DMEM supplemented with 5% FBS and incubated for 24 hours (37° C.; 5% CO2). Following 24 hours of incubation medium was replaced with DMEM containing 10% FBS. Cells were challenged with a combination of paclitaxel and ALN, a combination of Paclitaxel-FK and ALN, with each drug alone, and with […] (SEQ ID NO: 12), at serial concentrations for 72 hours. Control cells were grown with or without growth factors. After incubation HUVEC and PC3 were counted by Coulter Counter or by XTT respectively.

HUVEC = HUVEC cell proliferation assay; assay type: cell-based, human; details: for IC50: 48 hours incubation, Paclitaxel-equivalent, read-out: IC50, proliferation of HUVECs
Experimental: Human Umbilical vain endothelial cells (HUVEC) were plated onto 24-well plate (1×10^4 cells/well) in growth factors reduced media, (EBM-2, Cambrex, USA) supplemented with 5% Fetal Bovine Serum (FBS). Following 24 hours of incubation (37° C.; 5% CO2) medium was replaced with EGM-2 (Cambrex, USA). PC3 cells were plated onto 96 well plate (2×10^3 cells/well) in DMEM supplemented with 5% FBS and incubated for 24 hours (37° C.; 5% CO2). Following 24 hours of incubation medium was replaced with DMEM containing 10% FBS. […] Control cells were grown with or without growth factors. After incubation HUVEC and PC3 were counted by Coulter Counter or by XTT respectively.

[2] = system: DA3 murine mammary cancer cells; test: Antitumor activity in vivo, mCherry-labeled DA3 tumors in the tibia; design: species or system Balb/c female mice; details: 9 days of treatment
Experimental: 9 Balb/c female mice (n=3 per group) were injected intra tibia with 5×10^5 mCherry-labeled DA3 murine mammary cancer cells. […] (SEQ ID NO: 12) or with vehicle (1:1:8 cremophor EL:ethanol:saline). Therapy was initiated 10 days after tumor cells injection. Tumor progression was monitored by CRI™ Maestro non-invasive intravital imaging system. At termination, tibias were weighed and analyzed. Data is expressed as mean±standard error of the mean (s.e.m.).
Balb/c female mice bearing mCherry-labeled DA3 tumors in the tibia were treated with free and conjugated ALN and PTX (1:1.6, 1.25 mg/kg ALN and 2 mg/kg PTX, every day). Tumor growth rates were measured and monitored by mCherry fluorescence signal using CRI™ Maestro non-invasive intravital imaging system.

NCCCC(O)(P(=O)(O)O)P(=O)(O)O [ALN, (4-amino-1-hydroxybutylidene)bisphosphonic acid]
effect on the proliferation of PC3 cells ([1]; concentrations tested 0.01 nM-10 μM, alone or combined with PTX or PTX-FK): no effect | concentration at which proliferation of HUVEC was inhibited (only the highest dose tested) (HUVEC; ALN alone): 6.25 µM | additional effect on proliferation of HUVEC when combined with Paclitaxel or Paclitaxel-FK (HUVEC; tested concentrations 10 μM-0.001 nM): no additional effect

CC(=O)O[C@H]1C(=O)[C@@]2(C)[C@H]([C@H](OC(=O)c3ccccc3)[C@]3(O)C[C@H](OC(=O)[C@H](O)[C@@H](NC(=O)c4ccccc4)c4ccccc4)C(C)=C1C3(C)C)[C@]1(OC(C)=O)CO[C@@H]1C[C@@H]2O [PTX, paclitaxel]
IC50 ([1]; Homo sapiens, PC-3, 72 hours, PTX alone, read-out: IC50, proliferation of PC3 cells): 1000 nM | antitumor effect (in words) [2]: no therapeutic effect | antitumor effect (in words) ([2]; listed as Free PTX): no antitumor effect | antitumor effect (in words) ([2]; listed as free PTX): unaffected

HPMA copolymer-GGFK-PTX conjugate: cathepsin B-enzymatically cleavable HPMA copolymer conjugate of paclitaxel ({HPMA copolymer}-GGFK-paclitaxel; reading uncertain; also: conjugated to HPMA copolymer, conjugated to paclitaxel (PTX))
IC50 (HUVEC): ~0.1 µM

HPMA copolymer-GGGG-PTX conjugate ({HPMA copolymer}-GGGG-paclitaxel; reading uncertain; also: conjugated to HPMA copolymer, conjugated to paclitaxel (PTX))
concentration inhibiting HUVEC proliferation relative to cathepsin B cleavable HPMA-GGFK-PTX conjugate (HUVEC; 48 hours): 2 logs | IC50 (HUVEC): ~10 µM
